The values that follow come from patent publication US20130172271A1, “Pharmaceutical Spray Drying” (priority 2012, published 2013).

A short description of data set [1]: Stability testing of spray dried vancomycin batch stored at 25° C./60% RH, 30° C./60% RH and 40° C./75% RH. In kind it is physicochemical. The settings on record: Initial. As to the method: (§1) Batches for stability testing were made using the spray dried formulation vancomycin HCl (15% by weight), PEG-400 (3% by weight), mannitol (3% by weight) in WFI, with the API sourced from Abbott Laboratories (North Chicago, Ill.). Spray dried batches were stored at 25° C./60% Relative Humidity (RH), 30° C./60% RH, and 40° C./75% RH for three months. The stability data on moisture by Karl Fischer, pH (of the reconstituted solution), reconstitution time and chromatographic purity are presented in Table 7. The chromatographic purity was examined using the analytical HPLC method described in the current USP (United States Pharmacopeia) monograph for vancomycin. The test results for the API lot used to make the spray dried product were also listed for comparison.
The chromatographic purity of vancomycin B for all samples tested in this study were within USP specifications. All samples were stored at the accelerated conditions of 40° C./75% RH for 3 months and met USP criterion for vancomycin B by chromatographic purity (NLT 80% vancomycin B).

Data set [2] in a line: Chromatographic purity / impurities of spray dried vancomycin powders (Vancomycin B). Type of data set: physicochemical. Here is the method: as §1
Three vancomycin formulations were prepared in WFI or citrate buffer. The solutions were spray dried as described above. Resultant powders were tested along with the vancomycin HCl API for impurities, reconstitution time and moisture as shown in Table 8.

Where a name gives a salt, the structure may show the parent alone.

Turning to `CN[C@H](CC(C)C)C(=O)N[C@H]1C(=O)N[C@@H](CC(N)=O)C(=O)N[C@H]2C(=O)N[C@H]3C(=O)N[C@H](C(=O)N[C@H](C(=O)O)c4cc(O)cc(O)c4-c4cc3ccc4O)[C@H](O)c3ccc(c(Cl)c3)Oc3cc2cc(c3O[C@@H]2O[C@H](CO)[C@@H](O)[C@H](O)[C@H]2O[C@H]2C[C@](C)(N)[C@H](O)[C@H](C)O2)Oc2ccc(cc2Cl)[C@H]1O` [API Lot 09097619, vancomycin HCl], in data set [1], the “Vancomycin B” value worked out at 91.9%.
`CN[C@H](CC(C)C)C(=O)N[C@H]1C(=O)N[C@@H](CC(N)=O)C(=O)N[C@H]2C(=O)N[C@H]3C(=O)N[C@H](C(=O)N[C@H](C(=O)O)c4cc(O)cc(O)c4-c4cc3ccc4O)[C@H](O)c3ccc(c(Cl)c3)Oc3cc2cc(c3O[C@@H]2O[C@H](CO)[C@@H](O)[C@H](O)[C@H]2O[C@H]2C[C@](C)(N)[C@H](O)[C@H](C)O2)Oc2ccc(cc2Cl)[C@H]1O` [API, vancomycin HCl]: in data set [2] (Table 8), the N-Demethylvancomycin was determined as 0.6% and the “Vancomycin B” value came to 94.9%. For the same compound, the Other in data set [2] (Table 8, other impurities) came out at 4.5%.
